System: HeLa cells
Assay: Kinetic imaging of NBD-triazine probe uptake and sequestration, fitted to nested two-compartment transport model
Format: cell-based
Conditions: median over optimal solutions within 5% of the best fit
Procedure: In living cells, image data was simultaneously acquired with an automated, high-content, kinetic screening instrument equipped with an environmental chamber (see, e.g., V. C. Abraham, D. L. Taylor and J. R. Haskins, Trends in Biotechnology 22, 15 (2004); herein incorporated by reference in its entirety), as cells were incubated with the fluorescent molecules and after removal of extracellular probe. Data was analyzed off line, using an image analysis algorithm to measure the statistical pixel intensity distribution associated with fluorescence probe sequestration in the perinuclear region (see, e.g., FIG. 21; see also, e.g., G. J. Ding et al., Journal of Biological Chemistry 273, 28897 (1998); herein incorporated by reference in its entirety). Data was parametrized with a nested, two-compartment, transport model (see, e.g., W. E. Evans, J. J. Schentag and W. J. Jusko., Applied Pharmacokinetics: Principles of Therapeutic Drug Monitoring (Lippincott Williams & Wilkins, Vancouver, W.A., 1992); herein incorporated by reference in its entirety), using a statistical link function to relate the kinetic coefficient of variation (CV) of pixel intensities in the images with the concentration of probe in vesicles and cytoplasm. Optimal kinetic parameters fitting the experimental data for each probe to the system described by the two-compartment model and statistical link function were determined using the simulated annealing technique (see, e.g., M. Pincus., Oper. Res. 18, 1225 (1979); herein incorporated by reference in its entirety). The present invention is not limited to a particular mechanism. Indeed, an understanding of the mechanism is not necessary to practice the present invention.
To assess how well the model accounts for all the different kinetic traces acquired, a “PVE” (proportion of variance explained) by the model was calculated. The PVE is one minus the ratio of the sum of squared differences between observed and fitted values to the sum of squared differences between observed values and their mean. PVE values close to one indicate good fit to the nested two-compartment model. The average PVE across the probes was 0.92, with >50% of the probes yielded PVE values […]. The present invention is not limited to a particular mechanism. Indeed, an understanding of the mechanism is not necessary to practice the present invention.
Cell culture. HeLa cells were grown in RPMI+10% FCS in a 5% CO2 atmosphere at 37° C. and plated in 96-well plates at a density of 3000 cells/well 24 hours prior to the start of the experiment.
Kinetic Imaging. For influx experiments, cells on 96-well plates were switched to imaging media consisting of RPMI containing 1.0 mM Bromophenol Blue—a soluble, cell-impermeant chromophore used to suppress excitation and emission of extracellular (background) dye fluorescence-, 10 μM probe and 0.1 μM Hoescht 33258 to label the cell nuclei. Plates were then transferred to a KineticScan instrument (Cellomics, Inc., Pittsburgh, Pa.), which contains an environmentally controlled CO2/temperature/humidity chamber, and data was acquired with a 20× objective lens. Images acquisition began approximately 10 min after dye addition, using the Hoescht channel to acquire nuclear images and FITC channel to acquire the NBD image. Plate-scanning mode was used for scanning, in which the instrument builds time-stacks of images by scanning the plate multiple times, returning to the same site of the plate at every scan. For efflux experiments, dye-containing media was removed from the wells of the plate. The wells were washed twice with fresh RPMI medium, imaging media was added, and image acquisition restarted 7 min after the dye-containing media was removed. The last time points of the influx experiment served as the first time point of the efflux experiment. Plates were scanned for approximately two hours in the influx experiment and six hours for the efflux experiment, with each well imaged on average every 7 minutes. […]

Row | median Pap(cyto) (apparent partition coefficient between extracellular medium and cytosol) | median Pap(ves) (apparent partition coefficient between cytosol and intracellular vesicles, k(ves)in/k(ves)out) | Compound
1 | 10.25 | 22.06 | CCCCNc1nc(NCCCCCCNc2ccc([N+](=O)[O-])c3nonc23)nc(NCc2ccc(OC)cc2)n1 [Compound C1]
2 | 239.41 | 1.03 | COc1ccc(CNc2nc(NCCCCCCNc3ccc([N+](=O)[O-])c4nonc34)nc(NC(C)C)n2)cc1 [Compound C2]
3 | 5.74 | 26.52 | CCCCCCCCNc1nc(NCCCCCCNc2ccc([N+](=O)[O-])c3nonc23)nc(NCc2ccc(OC)cc2)n1 [Compound C3]
4 | 22.58 | 9.87 | COc1ccc(CNc2nc(NCCCCCCNc3ccc([N+](=O)[O-])c4nonc34)nc(NC3CCC(C)CC3)n2)cc1 (stereo not drawn) [Compound C4]
5 | 10.01 | 9.72 | COc1ccc(CNc2nc(NCCCCCCNc3ccc([N+](=O)[O-])c4nonc34)nc(NC3CCCCC3C)n2)cc1 (stereo not drawn) [Compound C5]
6 | 19.15 | 11.94 | COc1ccc(CNc2nc(NCCCCCCNc3ccc([N+](=O)[O-])c4nonc34)nc(NCC3CCCCC3)n2)cc1 [Compound C6]
7 | 12.58 | 12.01 | COc1ccc(CNc2nc(NCCCCCCNc3ccc([N+](=O)[O-])c4nonc34)nc(NC3CCCCC3)n2)cc1 [Compound C7]
8 | 8.56 | 31.04 | COc1ccc(CNc2nc(NCCCCCCNc3ccc([N+](=O)[O-])c4nonc34)nc(NCCC(C)C)n2)cc1 [Compound C8]
9 | 12.33 | 16.46 | COc1ccc(CNc2nc(NCCCCCCNc3ccc([N+](=O)[O-])c4nonc34)nc(NCCc3ccccn3)n2)cc1 [Compound C9]
10 | 12.15 | 15.51 | CCCCNc1nc(NCCCCCCNc2ccc([N+](=O)[O-])c3nonc23)nc(NCCc2ccc(OC)cc2)n1 [Compound D1]
11 | 149.28 | 1.53 | COc1ccc(CCNc2nc(NCCCCCCNc3ccc([N+](=O)[O-])c4nonc34)nc(NC(C)C)n2)cc1 [Compound D2]
12 | 2.75 | 101.21 | CCCCCCCCNc1nc(NCCCCCCNc2ccc([N+](=O)[O-])c3nonc23)nc(NCCc2ccc(OC)cc2)n1 [Compound D3]

More lines, now with the values behind:

Row | Compound | median Pap(cyto) (apparent partition coefficient between extracellular medium and cytosol) | median Pap(ves) (apparent partition coefficient between cytosol and intracellular vesicles, k(ves)in/k(ves)out)
13 | CCCCNc1nc(NCCCCCCNc2ccc([N+](=O)[O-])c3nonc23)nc(NCc2ccccc2)n1 [Compound A1] | 185.83 | 0.52
14 | CC(C)Nc1nc(NCCCCCCNc2ccc([N+](=O)[O-])c3nonc23)nc(NCc2ccccc2)n1 [Compound A2] | 13.18 | 13.98
15 | CCCCCCCCNc1nc(NCCCCCCNc2ccc([N+](=O)[O-])c3nonc23)nc(NCc2ccccc2)n1 [Compound A3] | 12.96 | 6.45
16 | CC1CCC(Nc2nc(NCCCCCCNc3ccc([N+](=O)[O-])c4nonc34)nc(NCc3ccccc3)n2)CC1 (stereo not drawn) [Compound A4] | 7.72 | 29.83
17 | CC1CCCCC1Nc1nc(NCCCCCCNc2ccc([N+](=O)[O-])c3nonc23)nc(NCc2ccccc2)n1 (stereo not drawn) [Compound A5] | 19.23 | 12.11
18 | O=[N+]([O-])c1ccc(NCCCCCCNc2nc(NCc3ccccc3)nc(NCC3CCCCC3)n2)c2nonc12 [Compound A6] | 151.26 | 0.30
19 | O=[N+]([O-])c1ccc(NCCCCCCNc2nc(NCc3ccccc3)nc(NC3CCCCC3)n2)c2nonc12 [Compound A7] | 7.55 | 33.83
20 | CC(C)CCNc1nc(NCCCCCCNc2ccc([N+](=O)[O-])c3nonc23)nc(NCc2ccccc2)n1 [Compound A8] | 3.75 | 63.22
21 | O=[N+]([O-])c1ccc(NCCCCCCNc2nc(NCCc3ccccn3)nc(NCc3ccccc3)n2)c2nonc12 [Compound A9] | 11.54 | 19.12
22 | CCCCNc1nc(NCCCCCCNc2ccc([N+](=O)[O-])c3nonc23)nc(NCc2cccc(OC)c2)n1 [Compound B1] | 262.28 | 0.31
23 | COc1cccc(CNc2nc(NCCCCCCNc3ccc([N+](=O)[O-])c4nonc34)nc(NC(C)C)n2)c1 [Compound B2] | 11.59 | 10.82
24 | CCCCCCCCNc1nc(NCCCCCCNc2ccc([N+](=O)[O-])c3nonc23)nc(NCc2cccc(OC)c2)n1 [Compound B3] | 3.43 | 31.61
25 | COc1cccc(CNc2nc(NCCCCCCNc3ccc([N+](=O)[O-])c4nonc34)nc(NC3CCC(C)CC3)n2)c1 (stereo not drawn) [Compound B4] | 18.09 | 12.15
26 | COc1cccc(CNc2nc(NCCCCCCNc3ccc([N+](=O)[O-])c4nonc34)nc(NC3CCCCC3C)n2)c1 (stereo not drawn) [Compound B5] | 9.10 | 9.25
27 | COc1cccc(CNc2nc(NCCCCCCNc3ccc([N+](=O)[O-])c4nonc34)nc(NCC3CCCCC3)n2)c1 [Compound B6] | 242.54 | 0.36
28 | COc1cccc(CNc2nc(NCCCCCCNc3ccc([N+](=O)[O-])c4nonc34)nc(NC3CCCCC3)n2)c1 [Compound B7] | 12.22 | 11.80
29 | COc1cccc(CNc2nc(NCCCCCCNc3ccc([N+](=O)[O-])c4nonc34)nc(NCCC(C)C)n2)c1 [Compound B8] | 9.79 | 23.66
30 | COc1cccc(CNc2nc(NCCCCCCNc3ccc([N+](=O)[O-])c4nonc34)nc(NCCc3ccccc3)n2)c1 [Compound B10] | 8.21 | 27.03

From US20070111251A1, “Chemical address tags” (priority 2003, published 2007)
